From patent US7109043B2, “Fluorescent probe for magnesium ion determination” (Japan Science and Technology Corporation, priority 2000, dated 2006)
Entries after “also recorded” stand apart in the source; their conditions may differ. Where two headings read alike, the source gives them in different places.

Legend:
[1] = Binding constant to calcium ion by fluorescence titration (Benesi-Hildebrand plot); settings: probe 10 μM in HEPES 10.0 mM, KCl 120.0 mM, NaCl 20.0 mM, EGTA 2.0 mM, pH 7.20; excitation 448 nm, fluorescence 505 nm
Procedure: (§1) Selectivities to magnesium ion (i.e., the ratio of binding constant to magnesium ion to the binding constant to calcium ion) of KMG-20 synthesized in Example 1 and KMG-27 synthesized in Example 4 were measured. More particularly, this measurement was carried out as follows:
(§2) The fluorescent indicator was dissolved in a solvent (HEPES 10.0 mM, KCl 120.0 mM, NaCl 20.0 mM, EGTA 2.0 mM, pH 7.20) to a concentration of 10 μM. To this solution, a metal salt solution (MgCl2, CaCl2) in the above-described solvent was added to a concentration of 0 to 500 mM, and fluorescence spectrum was measured.
(§3) The conditions of the fluorophotometer (Hitachi F4500) were as follows: excitation wavelength: 448 nm, slit width: excitation side: 2.5 nm, fluorescence side 2.5 nm, photomultiplier voltage: 700V, scanning rate: 240 nm/min.
The fluorescence intensities at the maximum fluorescence wavelength (505 nm) when the concentration of the metal ion was changed were measured, and the binding constants to Mg^2+ and Ca^2+ were calculated by using Benesi-Hildebrand plot method (J. Am. Chem. Soc. 71, 2703 (1949)). […]

[2] = Binding constant to magnesium ion by fluorescence titration (Benesi-Hildebrand plot); settings: for KMg (binding constant to Mg^2+): probe 10 μM in HEPES 10.0 mM, KCl 120.0 mM, NaCl 20.0 mM, EGTA 2.0 mM, pH 7.20, excitation 448 nm, fluorescence 505 nm; for KMg/KCa (selectivity to magnesium ion): ratio of binding constant to magnesium ion to binding constant to calcium ion
Procedure: as §1, §2, §3
The fluorescence intensities at the maximum fluorescence wavelength (505 nm) when the concentration of the metal ion was changed were measured, and the binding constants to Mg^2+ and Ca^2+ were calculated by using Benesi-Hildebrand plot method (J. Am. Chem. Soc. 71, 2703 (1949)).
For comparison, the binding constants of known magnesium probes commercially available from Molecular Probes, that is, mag-fura-2 (Proc. Natl. Acad. Sci. USA, 86, 2981 (1989)), mag-indo-1(J. Physiol, 475, 319 (1994)), mag-fura-5 (J. Physiol, 475, 319 (1994)) and Magnesium Green (J. Biol. Chem. 270, 18975 (1995)) are also shown in Table 1.

PC-12 cells = assay: Measurement of magnesium ions in cells using fluorescent probe (No. 2), fluorescence microscopy; assay type: cell-based, rat; settings: for Change in fluorescence intensity after addition of FCCP: 5.0 μM FCCP (raises free magnesium ion level); for Staining / dispersion of the probe in cells: excitation 440 nm, detection 500–530 nm
Procedure: Behavior of magnesium ions in cells were measured using the fluorescent probe synthesized in Example 4.
(§4) Since this fluorescent probe KMG-20 has an acetoxymethyl group, it has a high lipid solubility and is easy to transfer from the culture medium to the cell membrane. In the vicinity of the cell membrane, the acetoxymethyl group is removed by an ester hydrolysis enzyme in the cell and becomes again a water-soluble compound having a carboxyl group, so that it is diffused into the cytoplasm.
A solution of the fluorescent probe in DMSO (1.0 ml) was added to Hanks-HEPES buffer so as to attain a final concentration of 10.0 μM, and the mixture was subjected to ultrasonication. The culture medium in which PC-12 cells (cloned nerve cells isolated from rat adrenal medulla chrome-philic cytoma) had been cultured at 37° C. on a petri dish was replaced with the fluorescent probe solution, and the cells were incubated at 37° C. for 30 minutes. […] The excitation wavelength was 440 nm and the detection wavelength was 500–530 nm. For comparison, the cells before the treatment with the fluorescence probe were also observed with the fluorescence microscope.
(§5) To clarify the behavior of free magnesium ions in the cells, 5.0 μM carbonylcyanoid p-(trifluoromethoxy)phenylhydrazone (FCCP) was added. As a result, the entire cell was brightened. The change in the fluorescence intensity with time after the addition of FCCP was observed. […] It is known that magnesium ion usually binds to an oxygen atom in the phosphoric acid ester moiety of a phosphorylated substrate such as ATP, ADP, phosphorylated saccharide, nucleic acid or the like to neutralize the electric charge thereof, and serves as an acid catalyst, and that enzymes whose corresponding substrates are phosphoric acid ester compounds require magnesium ion as a co-factor. Since FCCP serves as a respiration inhibitor of mitochondria in the cells, the ATP activity in the cells is decreased and so the free magnesium ion level is increased, it is thought that the fluorescent probe formed a complex with magnesium ion, thereby increasing the fluorescence intensity.
(§6) Further, 10 μM acetylcholine was added to the cells so as to compulsively increase the calcium level in the cells.

[3] = known commercial magnesium probes, literature values for comparison; cited from earlier work
[4] = known commercial magnesium probes, literature values for comparison; cited from earlier work; remark: listed apart in the source
[5] = tested on: bovine vascular endothelial cells; assay: Measurement of magnesium ions in cells using fluorescent probe (No. 1), fluorescence microscopy; assay type: cell-based
Procedure: as §4, with “Magnesium ions in cells were measured using the fluorescent probe KMG-20 synthesized in Example 1. Since” for “Since”, “the” for “this”, “cytoplasm. Upon forming a complex with a magnesium ion, the fluorescence of KMG-20 is increased.” for “cytoplasm.”
A solution of the fluorescent probe KMG-20 in DMSO (1.0 ml) was added to Hanks-HEPES buffer so as to attain a final concentration of 10.0 μM, and the mixture was subjected to ultrasonication. The culture medium in which bovine vascular endothelial cells had been cultured at 37° C. on a petri dish was replaced with the above-described KMG-20 solution, and the cells were incubated at 37° C. for 30 minutes. […] The excitation wavelength was 440 nm and the detection wavelength was 500–530 nm. For comparison, the cells before the treatment with the fluorescence probe were also observed with the fluorescence microscope.
as §5, with “5” for “5.0”, “KMG-20” for “the fluorescent probe”
as §6

[6] = 10 μM acetylcholine (increases calcium level in the cells)
[7] = 10.0 μM probe, 37° C. 30 minutes, fluorescence microscope

SMILES | KCa (binding constant to Ca^2+) [1] | KMg (binding constant to Mg^2+) [2] | KMg/KCa (selectivity to magnesium ion) [2] | KMg (binding constant to Mg^2+) [3] | KCa (binding constant to Ca^2+) [4] | further results
COC(=O)c1cc2cc3c4c(c2oc1=O)C(C)(C)CCN4CCC3(C)C [KMG-27, methyl-13-aza-10,10,16,16-tetramethyl-3-oxa-4-oxo-tetracyclo[7,7,1,0<2,7>.O<13,17>]heptadeca-1(17),2(7),5,8-tetraene-5-carboxylate] | 33.0 M⁻¹ | 102.0 M⁻¹ | 3.09 |  |  | Change in fluorescence intensity after addition of FCCP (PC-12 cells): increase in the fluorescent intensity was observed; Change in fluorescence intensity after addition of FCCP (PC-12 cells; listed as Example 4): fluorescence intensity was increased during 1 minute from the addition of FCCP; Change in fluorescence intensity after addition of acetylcholine (PC-12 cells; [6]): increase of the fluorescence intensity was not observed; Staining / dispersion of the probe in cells (PC-12 cells; 10.0 μM probe, 37° C. 30 minutes): uniformly dispersed in the cells; Staining / dispersion of the probe in cells (PC-12 cells; 10.0 μM probe, 37° C. 30 minutes, listed as Example 4): uniformly dispersed and stained the cells; Location of the probe in the cell (PC-12 cells; [7]): located in the vicinity of the nucleus
O=C([O-])COc1cc(NC(=O)c2ccc3c(c2)C(=O)OC32c3cc(Cl)c([O-])cc3Oc3cc([O-])c(Cl)cc32)ccc1N(CC(=O)[O-])CC(=O)[O-].[K+].[K+].[K+].[K+].[K+] [Magnesium Green] |  |  | 0.003 | 500.0 M⁻¹ | 166,660 M^−1 | 
CC(=O)OCOC(=O)c1cc2cc3c4c(c2oc1=O)CCCN4CCC3 [KMG-20, (13-aza-3-oxa-4-oxotetracyclo[7.7.1.0<2,7>.0<13,17>]heptadeca-1(17),2(7),5,8-tetraene-5-ylcarbonyloxy)methyl acetate] | 33.3 M⁻¹ | 100.0 M⁻¹ | 3.0 |  |  | Change in fluorescence intensity after addition of FCCP ([5]; 5 μM FCCP (raises free magnesium ion level)): fluorescence intensity was increased during 1 minute from the addition of FCCP; Change in fluorescence intensity after addition of acetylcholine [5, 6]: increase of the fluorescence intensity was not observed; Staining / dispersion of the probe in cells ([5]; 10.0 μM probe, 37° C. 30 minutes, excitation 440 nm, detection 500–530 nm): uniformly dispersed and stained the cells; also recorded: uniformly dispersed in the cytoplasm; Location of the probe in the cell [5, 7]: located in the vicinity of the nucleus

Now from value to compound, other results behind:

KCa (binding constant to Ca^2+) [1] | KMg (binding constant to Mg^2+) [2] | KMg/KCa (selectivity to magnesium ion) [2] | SMILES | KMg (binding constant to Mg^2+) [3] | KCa (binding constant to Ca^2+) [4] | further results
 |  | 0.013 | O=C(O)COc1cc(-c2cc3ccc(C(=O)O)cc3[nH]2)ccc1N(CC(=O)O)CC(=O)O [mag-indo-1] | 370.4 M⁻¹ | 28,570 M^−1 | 
 |  | 0.013 | O=C(O)COc1cc2cc(-c3ncc(C(=O)O)o3)oc2cc1N(CC(=O)O)CC(=O)O [mag-fura-2] | 526.3 M⁻¹ | 40,000 M^−1 | 
